Measured values taken from ChEMBL document CHEMBL6121044, “Discovery of Novel Spirocyclic MAT2A Inhibitors Demonstrating High In Vivo Efficacy in MTAP-Null Xenograft Models” (J Med Chem, 2025).

Tests used:
[1] = Volume of distribution at steady state in male Sprague-Dawley rat at 2 mg/kg, iv measured upto 24 hrs upto 24 hrs by LC-MS/MS analysis; type: ADME, organism-based; settings: in vivo
[2] = Hepatic metabolic stability in mouse hepatocyte assessed as half life; type: ADME, cell-based; settings: hepatocytes
[3] = Protein binding in mouse brain assessed as unbound fraction; type: ADME, tissue-based
[4] = Half life in male Sprague-Dawley rat at 10 mg/kg, po measured upto 24 hrs upto 24 hrs by LC-MS/MS analysis; type: ADME, organism-based; settings: in vivo
Cytochrome P450 2B6 = target: T1, Cytochrome P450 2B6 (Homo sapiens, UniProt P20813); assay: Inhibition of CYP2B6 (unknown origin); type: ADME
T1 sequence (P20813 whole entry): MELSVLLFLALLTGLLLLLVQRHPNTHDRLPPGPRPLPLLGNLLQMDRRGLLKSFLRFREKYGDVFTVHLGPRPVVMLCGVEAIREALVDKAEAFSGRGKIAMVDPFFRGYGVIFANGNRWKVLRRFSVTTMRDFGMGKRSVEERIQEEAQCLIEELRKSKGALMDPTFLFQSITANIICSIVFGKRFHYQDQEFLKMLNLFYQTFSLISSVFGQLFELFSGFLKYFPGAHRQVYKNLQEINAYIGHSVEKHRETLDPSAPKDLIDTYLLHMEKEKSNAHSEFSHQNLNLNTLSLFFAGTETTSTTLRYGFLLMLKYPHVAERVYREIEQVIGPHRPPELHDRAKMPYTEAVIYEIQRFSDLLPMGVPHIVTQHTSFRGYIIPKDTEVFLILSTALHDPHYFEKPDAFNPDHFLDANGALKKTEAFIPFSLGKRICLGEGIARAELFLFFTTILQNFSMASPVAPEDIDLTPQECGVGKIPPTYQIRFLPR

[5] = Plasma protein binding in cynomolgus monkey assessed as unbound fraction; type: ADME, cell-free, Macaca fascicularis
[6] = Genotoxicity in Salmonella typhimurium TA98; type: toxicity; settings: salmonella enterica subsp. enterica serovar typhimurium
[7] = In vivo antitumor activity against MTAP-deleted human KP-4 cells xenografted mouse model assessed as tumor growth inhibition at 30 mg/kg, po qd measured after 18 days relative to control; type: functional; settings: KP-4, 432 h, time 18 day, read-out: TGI
HCT-116 [8] = assay: In vivo antitumor activity against MTAP-deleted human HCT-116 cells xenografted mouse model assessed as tumor growth inhibition at 30 mg/kg, po qd measured after 18 days relative to control; type: functional; settings: HCT-116, 432 h, time 18 day, read-out: TGI
HCT-116 [9] = assay: In vivo antitumor activity against MTAP-deleted human HCT-116 cells xenografted mouse model assessed as tumor growth inhibition at 10 mg/kg, po qd measured after 18 days relative to control; type: functional; settings: HCT-116, 432 h, time 18 day, read-out: TGI
KP-4 = assay: In vivo antitumor activity against human KP-4 cells xenografted mouse model assessed as tumor growth inhibition at 90 mg/kg, po qd measured after 18 days relative to control; type: functional; settings: KP-4, 432 h, time 18 day, read-out: TGI
Cytochrome P450 3A4 = Cytochrome P450 3A4 (Homo sapiens, UniProt P08684); assay: Inhibition of CYP3A4 (unknown origin); type: ADME
Sequence of Cytochrome P450 3A4 (P08684 whole entry): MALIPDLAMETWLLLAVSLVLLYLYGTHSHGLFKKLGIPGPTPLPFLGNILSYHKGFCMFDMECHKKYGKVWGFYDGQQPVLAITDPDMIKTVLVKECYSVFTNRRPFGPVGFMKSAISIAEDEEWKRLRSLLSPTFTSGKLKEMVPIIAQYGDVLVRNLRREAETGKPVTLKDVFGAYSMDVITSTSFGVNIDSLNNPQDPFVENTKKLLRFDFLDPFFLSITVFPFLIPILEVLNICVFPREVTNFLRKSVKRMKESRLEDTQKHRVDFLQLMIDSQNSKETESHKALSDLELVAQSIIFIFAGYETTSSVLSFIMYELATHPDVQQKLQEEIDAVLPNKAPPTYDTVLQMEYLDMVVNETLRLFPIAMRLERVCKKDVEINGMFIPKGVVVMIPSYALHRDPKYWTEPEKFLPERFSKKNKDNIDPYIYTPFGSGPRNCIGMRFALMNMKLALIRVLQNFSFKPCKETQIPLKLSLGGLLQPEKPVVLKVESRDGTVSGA

[10] = Chronic toxicity in male ICR mouse assessed as body weight loss at 10 mg/kg, po once daily measured after 19 days relative to control; type: organism-based; settings: in vivo, 456 h, time 19 day
[11] = In vivo antitumor activity against MTAP-deleted human KP-4 cells xenografted mouse model assessed as tumor growth inhibition at 10 mg/kg, po qd measured after 18 days relative to control; type: functional; settings: KP-4, 432 h, time 18 day, read-out: TGI
[12] = Volume of distribution at steady state in male ICR mouse at 2 mg/kg, iv measured upto 24 hrs by LC-MS/MS analysis; type: ADME, organism-based; settings: in vivo, read-out: Vdss
HCT-116 [13] = assay: In vivo antitumor activity against MTAP-deleted human HCT-116 cells xenografted mouse model assessed as tumor growth inhibition at 1 mg/kg, po qd measured after 18 days relative to control; type: functional; settings: HCT-116, 432 h, time 18 day, read-out: TGI
[14] = In vivo antitumor activity against MTAP-deleted human NCI-H838 cells xenografted mouse model assessed as tumor growth inhibition at 10 mg/kg, po qd measured after 18 days relative to control; type: functional; settings: NCI-H838, 432 h, time 18 day, read-out: TGI
HCT-116 [15] = assay: In vivo antitumor activity against MTAP-deleted human HCT-116 cells xenografted mouse model assessed as tumor growth inhibition at 3 mg/kg, po qd measured after 18 days relative to control; type: functional; settings: HCT-116, 432 h, time 18 day, read-out: TGI
[16] = Toxicity in mouse xenografted with MTAP-deleted human HCT116 cells assessed as body weight loss at 10 mg/kg, po qd measured after 18 days relative to control; type: organism-based; settings: in vivo, 432 h, time 18 day
[17] = In vivo antitumor activity against MTAP-deleted human NCI-H838 cells xenografted mouse model assessed as tumor growth inhibition at 3 mg/kg, po qd measured after 18 days relative to control; type: functional; settings: NCI-H838, 432 h, time 18 day, read-out: TGI
[18] = Chronic toxicity in female ICR mouse assessed as body weight loss at 10 mg/kg, po once daily measured after 19 days relative to control; type: organism-based; settings: in vivo, 456 h, time 19 day

Vdss [1]	half-life [2]	fraction unbound [3]	half-life [4]	IC50 (Cytochrome P450 2B6)	fraction unbound [5]	IC50 (Cytochrome P450 3A4)	Structure (SMILES)	Activity [6]	further results
1.95 L/kg	> 3.61 h	0.148	2.35 h	> 10 µM	0.519	> 10 µM	[2H]C([2H])([2H])NC1=NC(=O)[C@]2(CCc3ncccc32)c2cc(C(C)(F)F)ccc21	Non-toxic	inhibition in vivo at 30 mg/kg [7]: 62%; inhibition in vivo at 30 mg/kg (HCT-116 [8]): 85.4%; inhibition in vivo at 10 mg/kg (HCT-116 [9]): 72.1%; inhibition in vivo at 90 mg/kg (KP-4): 74%
1.84 L/kg	> 3.61 h	0.113	2.4 h	> 10 µM	0.562	> 10 µM	[2H]C([2H])([2H])NC1=NC(=O)[C@]2(CCc3ncccc32)c2cc(C(F)(F)F)ccc21	Non-toxic	Activity [10]: 9.77%; inhibition in vivo at 10 mg/kg [11]: 80%; Vd [12]: 1.7 L/kg; inhibition in vivo at 1 mg/kg (HCT-116 [13]): 61.9%; inhibition in vivo at 10 mg/kg [14]: 78.1%; inhibition in vivo at 3 mg/kg (HCT-116 [15]): 85.9%; Activity [16]: ~ 15%; inhibition in vivo at 3 mg/kg [17]: 61.5%; Activity [18]: 2.36%
